Results: patent US11654126B2, “Method of inhibiting the proliferation of T and/or B lymphocytes via dimethylarginine derivatives and lymphocytes proliferation inhibitor” (GUANGZHOU MEDICAL UNIVERSITY, priority 2019, dated 2023)
Entries after “also recorded” stand apart in the source; their conditions may differ.

Legend:
human T cells [1] = experiment: Human T cell in vitro proliferation assay (anti-CD3/anti-CD28, CellTrace Violet); type: cell-based; details: 1 μM; for proliferation of human T cells: P<0.001; for number of divided T cells: human T cells, after 4 days of culture, FIG. 2
Description: Human T cell isolation and in vitro proliferation experiments: the use of blood from healthy adult blood donors was approved by the Ethics Committee of the Medical Faculty of Guangzhou Medical University, Guangzhou, China. Peripheral blood mononuclear cells (PBMCs) were isolated using Sepmate PBMC isolation tubes following the manufacturer's instructions (StemCell). CD3^+ human T cells were positively isolated by magnetic cell sorting (Miltenyi Biotec, Bergisch-Gladbach, Germany). Purified T cells were labeled with the proliferation dye CellTrace Violet according to the manufacturer's protocol. Then the cells (1×10^5 cells per well in flat bottom 96 well plate) were stimulated in vitro with immobilized anti-CD3 (5 μg/ml) and anti-CD28 (2 μg/ml) antibody (Biolegend, San Diego, USA), and expanded in RPMI1640 medium up to 5 days. Dilution of CellTrace Violet, indicating proliferation, was then evaluated by flow cytometry.

mouse B cells = experiment: Mouse B cell proliferation assay (splenocytes, IL-4 + anti-IgM, CellTrace Violet); type: cell-based; details: 5 μM; for B cells proliferation: P<0.01; for number of live B cells / number of divided B cells: after 4 days; for number of live B cells: FIG. 3A; for number of divided B cells: FIG. 3B
Procedure: Spleens were harvested, mechanically disrupted, and resuspend in RPMI 1640 complete medium (10% FBS).
Total splenocytes were then labeled with the proliferation dye CellTrace Violet according to the manufacturer's protocol. Then splenocytes (1×10^5 cells per well in flat bottom 96 well plate) were stimulated with recombinant human IL-4 ([…] and α-mouse IgM (10 μg/ml), and expanded in RPMI1640 medium up to 5 days. Dilution of CellTrace Violet was then evaluated by flow cytometry. (Note; splenocytes contain T cells and monocytes, which will die off during the assay period.)
Experimental group: ADMA or SDMA (5 μM) was added (ADMA and SDMA dissolved in sterile endotoxin-free water, the storage solution concentration is 0.5 mM). Control group: the same volume of sterile endotoxin-free water without ADMA or SDMA was added.

mouse T cells [2] = experiment: Mouse T cell proliferation assay (anti-CD3/CD28 beads, CellTrace Violet, flow cytometry); type: cell-based; details: 1 μM and 5 μM; for survival rate of cells / number of divided T cells: 3 days of stimulation, vs control group; for survival rate of cells: FIG. 1A; for number of divided T cells: FIG. 1B; for proliferation of mouse T cells: P<0.001
Procedure: Total splenic T cells were isolated by StemCell isolation kit: From female 6-8 weeks old C57BL mice, spleens were harvested, mechanically disrupted, and incubated with a biotinylated antibody cocktail consisting of antibodies to B220, CD11b, CD11c, CD16/32, CD19, CD25, CD105, NK1.1, and TCRγδ (StemCell). After a wash step, cells were incubated with streptavidin-coated magnetic nanoparticles (StemCell). CD3^+ cells were then isolated by applying a magnetic field and collecting the unbound cells.
The total T cells obtained in step 1 were labeled with the proliferation indicator dye CellTrace Violet according to the manufacturer's protocol, and then seeded in 96-well round bottom cell culture plates at 2×10^5 per well, next the cells were stimulated with anti-CD3 and anti-CD28 antibody coated magnetic beads (Gibco Dynabeads mouse T-activator CD3/CD28 for T-cell expansion and activation) with the beads to cells ratio of 1:4, and then expanded in RPMI-1640 medium up to 4 days, and dilution of CellTrace Violet was then evaluated by flow cytometry.
Experimental group: different concentrations of ADMA or SDMA were added (ADMA and SDMA dissolved in sterile endotoxin-free water, and the concentration of the storage solution is 0.5 mM); Control group: the same volume of sterile endotoxin-free water was added without ADMA or SDMA.

mouse T cells [3] = experiment: ROS generation in T cells (CellROX Green, flow cytometry); type: cell-based
Procedure: For flow cytometry, T cells were stained with 5 μM CellROX Green Reagent (Life Technologies) for 30 min at 37° C. in the presence or absence of ADMA or SDMA (5 μM), and then washed with 1×PBS once. MitoQ (100 nM) was added with ADMA and SDMA. Cells were resuspended in 300 μl of PBS before the analysis by flow cytometry.
Experimental Groups: ADMA alone, SDMA alone, or ADMA/SDMA (ADMA/SDMA represents the mixture of ADMA and SDMA herein) was used at the final concentration of 1 μM, MitoQ was used either at 10 nM or 100 nM.

mouse splenic T cells = experiment: DMGV-induced ROS in mouse T cells (flow cytometry); type: cell-based; details: 1 h, FIG. 6A
Procedure: (§1) DMGV was synthesized as described in the literature (for specific preparation procedures, refer to J. Mass Spectrom. 2012, 47, 1594; Anal. Biochem. 2011, 419, 234). Mouse and human T cells were treated with none, or DMGV (10 μM), or DMGV+MitoQ (100 nM) for 1 h and ROS was measured by flow cytometry. The results are shown in FIG. 6A and FIG. 6B, respectively.

human T cells [4] = experiment: DMGV human T cell proliferation (anti-CD3/anti-CD28 activation); type: cell-based; details: 3 days, FIG. 6D
Procedure: (§2) Mouse or human T cells were activated by anti-CD3 and anti-28 antibodies with none, DMGV (10 μM), or DMGV+MitoQ (100 nM) for 3 days and proliferation was measured by flow cytometry. The results are shown in FIG. 6C and FIG. 6D, respectively.

human peripheral T cells = experiment: DMGV-induced ROS in human T cells (flow cytometry); type: cell-based; details: 1 h, FIG. 6B
Procedure: as §1

T cells = experiment: Effect of MitoQ on T cell proliferation in vitro with ADMA/SDMA; type: cell-based, mouse; details: MitoQ 100 nM + ADMA/SDMA 1 μM vs ADMA/SDMA group; 3 days; FIG. 4D
Procedure: After incubating MitoQ and ADMA/SDMA together with T cells up to 3 days, flow cytometry was used to investigate the effect on the T cells proliferation in vitro.
Experimental groups: Control, ADMA/SDMA (1 μM), and ADMA/SDMA (1 μM)+MitoQ (100 nM).

activated human T cells = experiment: Proliferation of activated human T cells (compound added 24 h after anti-CD3/CD28 stimulation); type: cell-based; details: ADMA 1 μM; for inhibitory effect compared with other substances / number of live cells / T cell proliferation: PD404182 100 nM; for inhibitory effect compared with other substances / number of live cells: rapamycin 50 nM; for number of live cells: 24 h and 48 h after addition, vs control, FIG. 5A, 5B; for T cell proliferation: activated human T cells
Procedure: Human T cells were stimulated with anti-human CD3 and CD28 for 24 hours. […] Flow cytometry was used to analyze the number of live cells and the number of divided cells. The results are shown in FIG. 5A and FIG. 5B, respectively.

mouse T cells [5] = experiment: DMGV mouse T cell proliferation (anti-CD3/anti-CD28 activation); type: cell-based; details: 3 days, FIG. 6C
Procedure: as §2

SKG mice arthritis = experiment: Arthritis in beta-glucan injected SKG mice; type: in vivo; details: SKG mice with score 8 or above; DMGV 750 μg/mouse in the peritoneum up to 50 days; N=7, P=0.0006 (2-way ANOVA); FIG. 7
Procedure: SKG mice (purchased from CLEA Japan, Inc.) develop arthritis because a mutation in the ZAP-70 gene, which causes activation of T cells. SKG mice were injected with beta-glucan (30 mg/mouse, Sigma) to accelerate development of arthritis and the arthritis score was calculated as described in the literature (for specific preparation procedures, refer to Yoshitomi, H, J. Exp Med. 2005). Mice that reached the arthritis score of 8 or above in less than 2 months were selected and treated with DMGV (750 μg/mouse) twice a week up to 50 days.

[6] = ADMA or SDMA alone vs none, 2 hours, FIG. 4A

Row | Molecule | proliferation of human T cells (human T cells [1]) | number of divided T cells (human T cells [1]) | B cells proliferation (mouse B cells) | number of live B cells (mouse B cells) | number of divided B cells (mouse B cells) | survival rate of cells (mouse T cells [2]) | number of divided T cells (mouse T cells [2]) | proliferation of mouse T cells (mouse T cells [2]) | ROS (mouse T cells [3]; [6]) | inhibitory effect compared with other substances (activated human T cells) | number of live cells (activated human T cells) | T cell proliferation (activated human T cells) | further results
1 | CN=C(NC)NCCC[C@H](N)C(=O)O [SDMA, symmetric dimethylarginine] | inhibit proliferation of human T cells significantly | reduced the number of divided T cells | significantly inhibit B cells proliferation | reduced the number of live | reduced the number of live (FIG. 3A) and divided B cells | reduced the survival rate of cells | resulted in the reduction of the number of divided T cells | significantly inhibit the proliferation of mouse T cells | ROS was significantly induced |  |  |  | 
2 | COC1=C(OC)C(=O)C(CCCCCCCCCC[P+](c2ccccc2)(c2ccccc2)c2ccccc2)=C(C)C1=O [MitoQ, reference compound] |  |  |  |  |  |  |  |  |  |  |  |  | effect on DMGV-induced ROS (mouse splenic T cells; DMGV 10 μM plus MitoQ 100 nM): inhibited by MitoQ; effect on inhibition of proliferation by DMGV (human T cells [4]; DMGV 10 μM plus MitoQ 100 nM): inhibited by MitoQ; effect on DMGV-induced ROS (human peripheral T cells; DMGV 10 μM plus MitoQ 100 nM): inhibited by MitoQ; effect on inhibition of T cells proliferation by ADMA/SDMA (T cells): significantly prevent the inhibitory effect of ADMA and SDMA on T cells proliferation; ROS (mouse T cells [3]; MitoQ (100 nM) with ADMA/SDMA vs ADMA/SDMA alone, FIG. 4B): decreased significantly
3 | CN(C)C(N)=NCCC[C@H](N)C(=O)O [ADMA, asymmetric dimethylarginine] | inhibit proliferation of human T cells significantly | reduced the number of divided T cells | significantly inhibit B cells proliferation | reduced the number of live | reduced the number of live (FIG. 3A) and divided B cells | reduced the survival rate of cells | resulted in the reduction of the number of divided T cells | significantly inhibit the proliferation of mouse T cells | ROS was significantly induced | better than PD404182; also recorded: superior to the mTOR inhibitor rapamycin | the number of live cells declined | can inhibit T cell proliferation | number of divided cells of T cells (activated human T cells; vs control or rapamycin group): decreased significantly
4 | dimethylguanidino valeric acid [DMGV] |  |  |  |  |  |  |  |  |  |  |  |  | proliferation (mouse T cells [5]): inhibited proliferation; ROS (mouse splenic T cells; DMGV 10 μM): induces ROS; proliferation (human T cells [4]; DMGV 10 μM): inhibited proliferation; ROS (human peripheral T cells; DMGV 10 μM): induces ROS; arthritis score (SKG mice arthritis): significantly decreased the arthritis score in all mice
5 | N=C1Sc2ccccc2C2=NCCCN12 [PD404182, reference compound] |  |  |  |  |  |  |  |  |  | superior to the mTOR inhibitor rapamycin | the number of live cells declined | can inhibit T cell proliferation | 
